In patent publication US6421455B1, “Method for detecting cancer on skin of humans and mammals and arrangement for performing the method” (Medeikonos AB, priority 1996, dated 2002):

Columns and labels:
[1] = tested on: skin cancer (tumours) on skin; assay: Imaging fluorescence spectroscopy of skin after topical ALA application; format: in vivo, human; conditions: exciting light about 0,5 mW/cm^2, exposing time 2 s
Protocol: (§1) The method according to the invention is carried out in the way that first a water-in-oil emulsion or an oil-in-water emulsion is prepared form a compound called delta amino levulinic acid (ALA) having an ALA concentration of 5-25%. […] This agent which has the formula I is normally produced in the body in the […] and is a building stone for the haemoglobin. [drawing 1]

[2] = Solubility of ALA in water; format: physicochemical; conditions: ALA in the form of powder
Protocol: as §1

solubility in water [2]: easily solved in water
SMILES: NCC(=O)CCC(=O)O [ALA, delta amino levulinic acid]
average fluorescence level within area B (ALA-treated skin without detected tumours) relative to area A (untreated skin, skin auto fluorescence) ([1]; FIG. 1, back of a person): 1,9 ×
fluorescence intensity of white-contoured areas (tumours, areas 1-4) relative to skin auto fluorescence ([1]; FIG. 1, back of a person): 2,75 ×
average fluorescence level in area B (ALA-treated skin without detected tumours) relative to area A (untreated skin, skin auto fluorescence) ([1]; FIG. 2, breast of a person): 2,0 ×
fluorescence intensity of white-contoured areas (tumour, area 7) relative to skin auto fluorescence ([1]; FIG. 2, breast of a person): > 2,75 ×
